Measurements from patent US7208467B2, “Lipid-altering compositions for the treatment of infertility” (priority 2002, dated 2007).

Tests used:
LDL receptor = test: Immunoblot of LDL receptor expression in estrogen-treated rats; type: in vivo; settings: rat, liver
SR-BI = test: Immunoblot of SR-BI expression in tissues of estrogen-treated rats; type: in vivo, rat
Protocol: Tissues of estrogen-treated rats were screened for expression of SR-BI as described above following treatment of rats with 17-α-ethylenyl estradiol (estrogen). The rats were treated for five consecutive days with subcutaneous injections of 5 mg/kg 17-α-ethylenyl estradiol in propylene glycol or with propylene glycol alone (sham-injected).

HDL lipid uptake = HDL lipid uptake in vivo after DiI-HDL injection in estrogen-treated rats; parameters: species or system rat; settings: DiI-HDL 800 μg protein/kg into jugular vein, 1 hour
Protocol: For analysis of HDL lipid uptake in vivo, rats were anesthetized with nembutal or metafane before injection of DiI-HDL (800 μg protein/kg) into the left jugular vein. 1 hour later the anesthetized animals were perfused with oxygenated HBSS. Frozen sections (12 μm thick) of sucrose-infiltrated tissues were prepared. Tissue sections were viewed and photographed with a Zeiss photomicroscope III with the appropriate filter package.

[1] = system: SR-BI KO and wild-type female mice; test: Fertility of female mice mated with wild-type males; type: in vivo
Protocol: (§1) • Lipoprotein analysis. Plasma, collected from Avertin anesthetized mice, was size fractionated by FPLC, and the total cholesterol in each fraction or in unfractionated plasma was determined as described previously (Rigotti, A., et al. 1997 Proc. Natl. Acad. Sci. USA. 94:12610–12615) or by using a commercial kit (Wako Chemical USA Inc., Richmond, Va., USA). For apoA-I KO mice, 500 μl of pooled plasma was used for FPLC analyses. • Animals. […] Opinl Lipidol. 11:123-131 (2000)), apoA-I KO (Kozarsky, et al., Nature 387414–417 (1997)) (C57BL/6; The Jackson Laboratory, Bar Harbor, Me., USA), and RAG-2 KO (mixed C57BL/6×129×BALB/c background; gift from Jianzhu Chen, Massachusetts Institute of Technology). Double SR-BI/apoA-I KO and SR-BI/RAG-2 KO mice were produced by (a) mating SR-BI KO males with apoA-I KO or RAG-2-KO females, (b) transferring the resulting embryos into Swiss Webster recipients, and (c) intercrossing the double heterozygous offspring.
Colonies were maintained by crossing double- KO males with females heterozygous for the SR-BI null mutation and homozygous for the apoA-I or RAG-2 mutation to optimize the low yield of SR-BI homozygotes. It has been possible to obtain only a few homozygous null SR-BI KO mice on an essentially pure C57BL/6 background (backcrossed nine times to pure C57BL/6 mice). Experiments with these (n=3; 4- month matings, no litters) and additional mixed background SR-BI KO mice (n=19) confirmed the extremely low fertility of female SR-BI KO mice. PCR was used for genotyping the various mutant mouse lines. The primers for analyses were as follows: for SR-BI, the primers were as described by Rigotti, et al., Proc. Natl. Acad. Sci. USA 94:12610–12615 (1997); for apoA-I, the following set of four primers were used: 5′ -[…]-3′ (SEQ ID NO:8), 5′-[…]-3′(SEQ ID NO:9), 5′-[…]-3′ (SEQ ID NO:10), and 5′-[…]-3 (SEQ ID NO:11)′ (sequences and protocols originally from the Jackson Laboratories), or primers 5′-[…]-3″ (SEQ ID NO: 12) and 5′-[…]-3′(SEQ ID NO:13); and for RAG-2, the primers were 5′-[…]-3″(SEQ ID NO:14) and 5′-[…]-3″ (SEQ ID NO:15) (kindly provided by Charles Whitehurst, Massachusetts Institute of Technology). All animal studies were approved by the Massachusetts Institute of Technology Committee on Animal Care. To test the fertility of genetically, surgically, or pharmacologically manipulated female mice, virgin females were housed continuously with wild-type males, and numbers of litters and pups were counted during the mating period. […] Otherwise shorter 1- to 2-month mating periods were used when the fertile females produced litters relatively quickly. • Ovary transplantation. Donor SR-BI KO or control wild-type mice (5–6 weeks of age) were sacrificed by cervical dislocation, and the ovaries were removed. Hosts (RAG-2 KO mice), 4–6 weeks of age, were anesthetized with 2.5% Avertin (intraperitoneally), and ovary transfer surgery was performed. In brief, ovaries of the host mice were removed from the surrounding ovarian bursa by cutting the side opposite to the ovarian hilus. Ovaries from the donor mice were then inserted into the ovarian bursa and the bursa closed with Vetbond tissue adhesive (3M Animal Care Products, St. Paul, Minn., USA). In sham ovary transplants (n=5), ovaries of SR-BI KO mice were removed and reinserted into the same mouse (either unilaterally when the contralateral oviduct was cut, n=1, or bilaterally, n=4). […]

[2] = Plasma total cholesterol and FPLC lipoprotein profile of PROBUCOL-fed mice; type: in vivo; settings: for Reduction of plasma cholesterol levels: 0.5% PROBUCOL chow; for Average plasma total cholesterol (±SEM): 0.5% PROBUCOL-enriched chow
Protocol: as §1

[3] = estrogen-treated versus control rats
[4] = rat, 5 mg/kg subcutaneous for five consecutive days, versus sham-injected
[5] = PROBUCOL-fed SR-BI KO females, n=14, 1- to 2-month mating

Row | Compound | LDL receptor expression (LDL receptor) | SR-BI expressed in the liver (SR-BI; [3]) | SR-BI in the ovaries (SR-BI; [3]) | SR-BI expression in adrenal membranes (SR-BI; [4]) | SR-BI levels in tissues showing trace signal (lung, testes, skin) (SR-BI; [4]) | SR-BI expression (immunoblot compared with LDL receptor) (SR-BI; rat, estrogen-treated, liver) | DiI-HDL fluorescence in the ovaries (HDL lipid uptake) | Uptake of lipid into adrenal tissues (HDL lipid uptake) | Average time from mating to delivery ([1]; PROBUCOL-fed SR-BI KO females) | Average litter size [1, 5] | Percentage of females producing litters [1, 5] | Average litter size ([1]; PROBUCOL-fed wild-type females, n=9, 1- to 2-month mating) | Restoration of fertility ([1]; SR-BI KO females, treatment began 1–3.5 weeks before mating and continued throughout) | Reduction of plasma cholesterol levels ([2]; SR-BI KO mice) | Average plasma total cholesterol (±SEM) ([2]; SR-BI KO mice, n=14) | Effect on apparent sizes of the HDLs ([2]; wild-type and SR-BI KO mice, FPLC) | Reduction of plasma cholesterol levels ([2]; wild-type mice) | Average plasma total cholesterol (±SEM) ([2]; wild-type mice, n=9)
1 | 17-α-ethylenyl estradiol [estrogen] | tremendous upregulation | significantly reduced levels | elevated levels | upregulation of SR-BI | no change in SR-BI levels | dramatically downregulated | elevated levels | dramatically increased |  |  |  |  |  |  |  |  |  | 
2 | CC(C)(Sc1cc(C(C)(C)C)c(O)c(C(C)(C)C)c1)Sc1cc(C(C)(C)C)c(O)c(C(C)(C)C)c1 [PROBUCOL™, 4,4′-(isopropylidenedithio) bis(2,6-di-tert-butylphenol)] |  |  |  |  |  |  |  |  | 28.4 days | 5.7 | 93% | 5.3 | completely restored fertility | approximately 49% | 107.8 ± 6.3 mg/dL | without substantially altering the apparent sizes of the HDLs | approximately 67% | 33.6 ± 3.4 mg/dL
